Like-named read-outs stand apart in the source and are kept apart here. Ends that are not written are not given here.
Assays:
A. baumannii ATCC 19606 = experiment: antibacterial activity testing in solid media (disk, Mueller-Hinton plates); format: cell-based, Acinetobacter baumannii; parameters: key to Inhibition zone diameter (mm): NI—No Inhibition of growth; settings: for zone of inhibition at 64 µg/mL: Acinetobacter baumannii, read-out: Inhibition zone diameter (mm); for zone of inhibition at 64 µg/mL / Inhibition zone diameter (mm): 10 μL at 64 μg/mL on disk
Experimental: (§1) Blank disks were placed in the plates and 10 μL of each compound (at 64 μg/mL—maximum concentration tested) added.
(§2) After incubation period results were registered and plates photographed.

MRSA ATCC 43300 = experiment: microbe, parasite or virus in culture; format: cell-based, Methicillin-Resistant Staphylococcus aureus; settings: for zone of inhibition at 64 µg/mL: Staphylococcus aureus, 10 μL at 64 μg/mL on disk, read-out: Inhibition zone diameter (mm)
Experimental: as §1, §2

E. coli ATCC 25922 = experiment: microbe, parasite or virus in culture; format: cell-based; settings: for zone of inhibition at 64 µg/mL: Escherichia coli, 10 μL at 64 μg/mL on disk, read-out: Inhibition zone diameter (mm)
Experimental: as §1, §2

[1] = test system: elastic fibers of the dermis; experiment: morphometric quantification of elastic fibers in skin explants; format: cell-based, Human; settings: for Morphometric quantification of elastic fibers in the middle dermis (%) / Morphometric quantification of elastic fibers in the superficial dermis (%): applied twice per day, 5 μL per explant
Experimental: (§3) Skin explants were prepared from abdominal plastic surgery. Some explants were delipidated with alcohol to obtain a dehydrated skin.
(§4) These explants were maintained in maintenance medium supplied by the provider Biopredic International for 5 days. Test items are applied twice per day with 5 μL per explant.
(§5) For each time of analysis (D1 and D5), histologies on delipidated explants, treated explants with test items, the DMSO 0.3% control and water control, are performed.
(§6) After receipt in the laboratory, each skin explant in the maintenance medium is delipidated with 5 μL alcohol during 3 hours.
(§7) After 3 hours, all skin explants are treated two per day with test items, and they are incubated at 37° C.+/−2° C., 5% CO2 for 1 day or 5 days.
The immunohistochemical staining intensity in the elastic fibers is evaluated using a semi-quantitative histological score.
The percentage area taken up by elastic fibers in the dermis was calculated in the dermis and the average superficial dermis. Results are presents in Table 4, FIG. 2 and FIG. 3.

TNF-α = TNF-α secretion by LPS-stimulated THP-1 differentiated macrophages (Biolegend ELISA); format: cell-based, human; settings: THP-1 differentiated macrophages treated 24 hrs. prior to LPS stimulation
Experimental: TNF-α is secreted by macrophages in response to stimulation by endotoxins such as lipopolysaccharides (LPS). TNF-α is thought to be involved in systemic inflammation and dysregulation of TNF-α production is thought to be involved in many diseases. The Biolegend assay is a sandwich ELISA kit that is designed for the accurate quantitation of human TNF-α from cell culture supernatant, serum or plasma.
THP-1 monocytes were seeded in a 96 well plate at 10,000 cells per well in RPMI containing 10% fetal calf serum (FCS), 1% Pen/strep, 1% L-glutamine, 100 nM PMA and allowed to differentiated for 72 h prior to experimentation.
Following differentiation the cells were incubated with 100 ng/ml, 10 ng/ml or 1 ng/ml synthetic peptide for 24 h respectively.
Following treatment the cells were stimulated with 10 ng/ml LPS for 5 h and the quantity of TNF-α in the supernatant determined using the Biolegend assay ELISA kit.
Results were calculated as a percentage of the untreated control. An increase in optical density reading indicates greater quantity of TNF-α release into cell culture supernatant.
All experiments were prepared in duplicate on three plates (6 wells/conditions). Significance was calculated using Students t-test (*p<0.05 compared to control, **p<0.01 compared to control, *** p<0.001 compared to control).

[2] = test system: keratinocytes of the basal layer of the epidermis; experiment: Ki67 immunohistochemistry (mitotic index) in skin explants; format: cell-based, Human; settings: for number of mitotic cells compared to EGF: day 1
Experimental: as §3, §4, §5, §6, §7
Epithelial proliferation was analyzed by immunohistochemistry using anti-Ki67 antibody. […] Counting the number of labeled cells (keratinocytes of the basal layer of the epidermis) is performed and provides the total number of basal cells to calculate the % of labeled cells.
The results of the immunohistochemical analysis of Ki67 are reported in Table 5 and expressed as % of labelled at the basal layer of the epidermis. The Error! […] Immunohistochemical analysis of mitotic activity is shown in annex 4 with a reminder of the average for each analysed conditions.

GLUT4 = experiment: GLUT4myc translocation in L6 myotubes; format: cell-based
Excerpt: We determined the effect of six synthetic peptides (SP1-6) and four peptide compositions on in vitro GLUT4 translocation using the L6 rat skeletal muscle cell line. A clone of the L6 cell line containing overexpression of GLUT4 tagged with a c-myc epitope (courtesy of Prof. Amira Klip, Hospital for Sick Children, Toronto) was used to investigate the efficacy of each synthetic peptide and peptide composition for effects on GLUT4 translocation in a dose-response design.
L6-GLUT4myc cells were grown in 10% FBS and 2 μg/ml blasticidin. Cells were grown for 48-72 hours before being seeded in 24-well plates at 15,000 cells per well in 2% FBS and allowed to differentiate for 6 to 8 days prior to experimentation.
L6-GLUT4myc cells were serum-starved for three hours prior to incubation with 100 nM of insulin for 30 mins, or 200, 20, 2.0 and 0.2 μM of SP, and 2, 1, 0.5 and 0.25 mg/ml of peptide composition for 3 hours respectively. A 3 hour incubation period was selected based on previous findings identifying that incubation with branch chain amino acid containing di-peptides for 3 hours increases glucose uptake in L6 myotubes 1. Treatments were staggered in order to determine GLUT4myc translocation at the same time point.
The quantity of myc-tagged GLUT4 at the cell surface was measured by antibody-coupled colorimetric assay. Briefly, after incubation with either insulin for 30 mins or synthetic peptide or peptide composition for 3 hours respectively, L6-GLUT4myc cells were fixed via incubation with 3% paraformaldehyde (PFA). A 0.1 M glycine solution was then added to quench PFA and cells were blocked with 5% goat serum. The myotube monolayer was exposed to anti-myc antibody and then incubated with peroxidase conjugated donkey anti-mouse IgG. 1 mL of o-phenylenediamine dihydrochloride (OPD) reagent was added to each well and this reaction was stopped by adding […] of 3 M HCL. To determine GLUT4 translocation to cell surface, a measured aliquot of each condition was determined spectrophotometrically on a plate reader using absorbance at 492 nm.
In addition to an untreated control, 100 nM insulin was utilised to stimulate a maximal GLUT4 translocation response i.e. a positive control in each experiment. […] Treatments were staggered so that all conditions (untreated, insulin and sample) were processed at the same time-point.

[3] = final result, not at the levels of susceptibility

| Molecule | Morphometric quantification of elastic fibers in the middle dermis (%) ([1]; D1) | Morphometric quantification of elastic fibers in the superficial dermis (%) ([1]; D1) | Morphometric quantification of elastic fibers in the middle dermis (%) ([1]; D5) | Morphometric quantification of elastic fibers in the superficial dermis (%) ([1]; D5) | % of Ki67 positive cells in the basal layer of the epidermis ([2]; D1) [%] | % of Ki67 positive cells in the basal layer of the epidermis ([2]; D5) [%] | further results |
| --- | --- | --- | --- | --- | --- | --- | --- |
| O=C(O)c1cn(C2CC2)c2cc(N3CCNCC3)c(F)cc2c1=O [CIP, Ciprofloxacin] | – | – | – | – | – | – | zone of inhibition at 64 µg/mL (A. baumannii ATCC 19606; ATCC19606, Rep 1): 27 mm; zone of inhibition at 64 µg/mL (A. baumannii ATCC 19606; ATCC19606, Rep 2): 28 mm; zone of inhibition at 64 µg/mL (A. baumannii ATCC 19606; ATCC19606, Rep 3): 27 mm; zone of inhibition at 64 µg/mL (MRSA ATCC 43300; Rep 1): 27 mm; zone of inhibition at 64 µg/mL (MRSA ATCC 43300; Rep 2): 28 mm; zone of inhibition at 64 µg/mL (MRSA ATCC 43300; Rep 3): 29 mm; zone of inhibition at 64 µg/mL (E. coli ATCC 25922; ATCC25922, Rep 1): 42 mm; zone of inhibition at 64 µg/mL (E. coli ATCC 25922; ATCC25922, Rep 2): 40 mm; zone of inhibition at 64 µg/mL (E. coli ATCC 25922; ATCC25922, Rep 3): 42 mm |
| DEHQKIHQFR [0723.08] | 3.52 | 2.7 | 7.27 | 5.32 | 27.83 | 5.72 | TNF-α secretion reduced vs. untreated cells (TNF-α): 80%; number of mitotic cells compared to EGF [2]: increase |
| DTFYNAAWDPSNR [SP1, reference compound] | – | – | – | – | – | – | cell viability (GLUT4; 200 μM, L6-GLUT4myc cells): poor cell viability |
| EDLRLVDLVIPVNGPGKFE [0723.06] | 4.54 | 3.8 | 8.67 | 4.03 | 31.97 | 5.04 | number of mitotic cells compared to EGF [2]: increase |
| EGF (Epidermal Growth Factor): Epidermal Growth Factor, 10 ng/mL, comparison condition in the skin explant tests [reference compound] | 5.68 | 3.64 | 6.61 | 5.61 | 25.11 | 4.2 | – |
| HGEWRPSYEKQEDEE [0723.03] | 4.9 | 3 | 9 | 11.68 | 22.01 | 10.04 | elastic fibers in the middle dermis compared to the water control ([1]; D5): increase; elastic fibers in the superficial dermis compared to control water ([1]; D5): increase by twice |
| HPVAITASSNLNLLGFG [0723.02] | 11.75 | 6.09 | 9.08 | 7.59 | 19.61 | 6.73 | elastic fibers in the middle dermis compared to the water control ([1]; D5): increase; elastic fibers in the middle dermis compared to control water ([1]; day 1): increase doubled; TNF-α secretion reduced vs. untreated cells (TNF-α): 80% |
| LNSQKFPILNLVQLSATR [I_87_SF] | – | – | – | – | – | – | Inhibition zone diameter (mm) (A. baumannii ATCC 19606; Rep 1): NI; Inhibition zone diameter (mm) (A. baumannii ATCC 19606; Rep 2): NI; Inhibition zone diameter (mm) (A. baumannii ATCC 19606; Rep 3): NI; inhibitory activity (A. baumannii ATCC 19606; final result): No activity; inhibition zone (MRSA ATCC 43300; agar plates): 18 mm; inhibitory activity (MRSA ATCC 43300; [3]): some inhibitory activity; inhibition zone (E. coli ATCC 25922; ATCC 25922): 9-10 mm; inhibitory activity (E. coli ATCC 25922; [3]): some inhibitory activity |
| QQYGIAASPFLQSAA [0723.07] | 6.46 | 4 | 5.33 | 5.15 | 22.22 | 5.26 | – |
| RHGEWRPSY [0723.01] | 7.59 | 4.45 | 10.17 | 10.21 | 18.57 | 3.92 | elastic fibers in the middle dermis compared to the water control ([1]; D5): increase; elastic fibers in the superficial dermis compared to control water ([1]; D5): increase by twice |
| RPYYSNAPQEIF [0723.04] | 5.22 | 3.28 | 9 | 8.94 | 14.97 | 11.36 | – |
| VLDLAIPVNRPGQL [SP2, glucose transport promoting fragment of Pea Protein P13918, Section C] | – | – | – | – | – | – | GLUT4 translocation (GLUT4; 0.2-2 μM, 3 hours): trend for SP2 to increase GLUT4 translocation; stimulatory effect on skeletal muscle GLUT4 translocation (GLUT4; conclusion of the experiment): trend for stimulatory effect |
| VLLEQQEQEPQH [0723.05] | 8.8 | 6.34 | 6.61 | 6.26 | 9.48 | 3.08 | – |
